Assay results: US20240251795A1, “METHOD FOR C[…] RESISTANT PESTS & COMPOUNDS THEREFOR” (priority 2021, published 2024)
In brackets after ≈: the same amount, converted by molar mass.

test system: multi-resistant Plutella xylostella larvae having the G4946E resistance mutation (strain R1); experiment: Resistant Plutella xylostella R1 (Diamond Back Moth) Larvicide L3, Feeding/Contact; assay type: in vivo; conditions: Plutella xylostella, in Brassica rapa, 96 h, read-out: Rate providing at least 80% control of the resistant strain of Plutella xylostella R1
Description: Resistant Plutella xylostella R1 (Diamond Back Moth) Larvicide L3, Feeding/Contact
Chinese cabbage plants were sprayed with diluted test solutions in an application chamber. Cut off leaves were placed into petri dishes with wetted filter paper and infested 1 day after application with 10 L3 multi-resistant Plutella xylostella larvae having the G4946E resistance mutation. Samples were assessed 4 days after infestation for mortality and growth regulation. CTPR was used as standard and a resistance factor of 146 was obtained for this strain.
Plutella xylostella resistant strain R1 originally collected from Taiwan in 2012 that carries the RyR mutation G4946E conferring resistance to diamides. The strain is reared on cabbage plants (Brassica aleracea) and selected approximately every two weeks with chlorantraniliprole.

Row | SMILES | EC80 [µg/mL]
1 | NC(=O)c1cc2cc(Br)ccc2c(Cl)c1NC(=O)c1cc(Br)nn1-c1ncccc1Cl [P.27, 5-bromo-N-(6-bromo-3-carbamoyl-1-chloro-2-naphthyl)-2-(3-chloro-2-pyridyl)pyrazole-3-carboxamide] | 50 (≈ 85.6 µM)
2 | NC(=O)c1cc2cc(Br)ccc2c(Br)c1NC(=O)c1cc(Br)nn1-c1ncccc1Cl [P.8, 5-bromo-2-(3-chloro-2-pyridyl)-N-(1,6-dibromo-3-carbamoyl-2-naphthyl)pyrazole-3-carboxamide] | 50 (≈ 79.6 µM)
3 | NC(=O)c1cc2cc(Br)ccc2c(Cl)c1NC(=O)c1cc(C(F)(F)F)nn1-c1ncccc1Cl [P.28, N-(6-bromo-3-carbamoyl-1-chloro-2-naphthyl)-2-(3-chloro-2-pyridyl)-5-(trifluoromethyl)pyrazole-3-carboxamide] | 50 (≈ 87.2 µM)
4 | CNC(=O)c1cc2cc(Br)ccc2c(Br)c1NC(=O)c1cc(OCC(F)(F)F)nn1-c1ncccc1Cl | 12.5 (≈ 18.9 µM)
5 | CNC(=O)c1cc2cc(Br)ccc2c(Cl)c1NC(=O)c1cc(Cl)nn1-c1ncccc1Cl | > 200
6 | CNC(=O)c1cc2cc(Br)ccc2c(Cl)c1NC(=O)c1cc(C(F)(F)F)nn1-c1ncccc1Cl | > 200
7 | CC(C)NC(=O)c1cc2nn(C)cc2c(Cl)c1NC(=O)c1cc(C(F)(F)F)nn1-c1ncccc1Cl | > 50
8 | CC(C)NC(=O)c1cc2cc(Br)ccc2c(Cl)c1NC(=O)c1cc(Br)nn1-c1ncccc1Cl | 200 (≈ 319 µM)
9 | CNC(=O)c1cc2cc(Cl)ccc2c(Cl)c1NC(=O)c1cc(Br)nn1-c1ncccc1Cl | 200 (≈ 361 µM)
10 | NC(=O)c1cc2cc(Br)ccc2c(Br)c1NC(=O)c1cc(C(F)(F)F)nn1-c1ncccc1Cl [P.4, 2-(3-chloro-2-pyridyl)-N-(1,6-dibromo-3-carbamoyl-2-naphthyl)-5-(trifluoromethyl)pyrazole-3-carboxamide] | 12.5 (≈ 20.2 µM)
11 | CNC(=O)c1cc2nc(C(F)(F)F)ccc2c(C)c1NC(=O)c1cc(C(F)F)nn1-c1ncccc1Cl | 200 (≈ 371 µM)
12 | CNC(=O)c1cc2cc(Br)ccc2c(Br)c1NC(=O)c1cc(C(F)(F)F)nn1-c1ncccc1Cl | 50 (≈ 79.2 µM)
13 | Cn1cc2c(Cl)c(NC(=O)c3cc(C(F)(F)F)nn3-c3ncccc3Cl)c(C(N)=O)cc2n1 [P.36, 4-chloro-5-[[2-(3-chloro-2-pyridyl)-5-(trifluoromethyl)pyrazole-3-carbonyl]amino]-2-methyl-indazole-6-carboxamide] | 3 (≈ 6.02 µM)
14 | NC(=O)c1cc2cc(Br)ccc2c(Cl)c1NC(=O)c1cc(Cl)nn1-c1ncccc1Cl [P.26, N-(6-bromo-3-carbamoyl-1-chloro-2-naphthyl)-5-chloro-2-(3-chloro-2-pyridyl)pyrazole-3-carboxamide] | 50 (≈ 92.7 µM)
15 | NC(=O)c1cc2cc(Br)ccc2c(Br)c1NC(=O)c1cc(OCC(F)(F)F)nn1-c1ncccc1Cl [P.1, 2-(3-chloro-2-pyridyl)-N-(1,6-dibromo-3-carbamoyl-2-naphthyl)-5-(2,2,2-trifluoroethoxy)pyrazole-3-carboxamide] | 3 (≈ 4.63 µM)
16 | CNC(=O)c1cc2cc(Br)ccc2c(Br)c1NC(=O)c1cc(Br)nn1-c1ncccc1Cl | > 200
17 | NC(=O)c1cc2cc(Cl)ccc2c(Cl)c1NC(=O)c1cc(Br)nn1-c1ncccc1Cl [P.25, 5-bromo-N-(3-carbamoyl-1,6-dichloro-2-naphthyl)-2-(3-chloro-2-pyridyl)pyrazole-3-carboxamide] | 50 (≈ 92.7 µM)
18 | O=C(NC1CC1)c1cc2cc(Br)ccc2c(Cl)c1NC(=O)c1cc(Br)nn1-c1ncccc1Cl | 200 (≈ 320 µM)
19 | Cc1c(NC(=O)c2cc(C(F)F)nn2-c2ncccc2Cl)c(C(N)=O)cc2nc(C(F)(F)F)ccc12 [P.7, 6-[[2-(3-chloro-2-pyridyl)-5-(difluoromethyl)pyrazole-3-carbonyl]amino]-5-methyl-2-(trifluoromethyl)quinoline-7-carboxamide] | 12.5 (≈ 23.8 µM)

same assay, conditions: strain R1; CTPR used as standard

Row | SMILES | resistance factor
20 | CNC(=O)c1cc(Cl)cc(C)c1NC(=O)c1cc(Br)nn1-c1ncccc1Cl [CTPR, chlorantraniliprole, reference compound] | 146

test system: Plutella xylostella resistant strain R4 (RyR mutation G4946E); experiment: Resistant Plutella xylostella R4 (Diamond back moth) larvicide L1, feeding/contact; assay type: in vivo; conditions: L1, artificial diet in 24-well plates, around 30 eggs; mortality vs untreated assessed 8 days after infestation
Description: Resistant Plutella xylostella R^4 (Diamond back moth) larvicide L1, feeding/contact 24-well microtiter plates with artificial diet were treated with aqueous test solutions prepared from 10′000 ppm DMSO stock solutions by pipetting. After drying, around 30 Plutella eggs were pipetted through a plastic stencil onto a gel blotting paper and the plate was closed with it. The samples were assessed for mortality in comparison to untreated samples 8 days after infestation.
CTPR was used as standard and a resistance factor of 242 was obtained for this strain
Plutella xylostella resistant strain R4 originated in the lab in 2021 from crossing the R1 strain with a lab-reared susceptible P. xylostella strain (SUS). R4 can be reared and tested on artificial diet and also carries the RyR mutation G4946E conferring resistance to diamides. The strain is selected approximately every two weeks with chlorantraniliprole.

Row | SMILES | Rate providing at least 80% control of the resistant strain of Plutella xylostella R4 [ppm]
21 | CC(C)NC(=O)c1cc2nn(C)cc2c(Cl)c1NC(=O)c1cc(C(F)(F)F)nn1-c1ncccc1Cl | >50
22 | Cn1cc2c(Cl)c(NC(=O)c3cc(C(F)(F)F)nn3-c3ncccc3Cl)c(C(N)=O)cc2n1 [P.36, 4-chloro-5-[[2-(3-chloro-2-pyridyl)-5-(trifluoromethyl)pyrazole-3-carbonyl]amino]-2-methyl-indazole-6-carboxamide] | 12.5
23 | CNC(=O)c1cc2nc(C)oc2c(C)c1NC(=O)c1cc(Br)nn1-c1ncccc1Cl | >50
24 | Cc1nc2cc(C(N)=O)c(NC(=O)c3cc(Br)nn3-c3ncccc3Cl)c(C)c2o1 [P.46, 6-[[5-bromo-2-(3-chloro-2-pyridyl)pyrazole-3-carbonyl]amino]-2,7-dimethyl-1,3-benzoxazole-5-carboxamide] | 12.5

same assay, conditions: strain R4; CTPR used as standard

Row | SMILES | resistance factor
25 | CNC(=O)c1cc(Cl)cc(C)c1NC(=O)c1cc(Br)nn1-c1ncccc1Cl [CTPR, chlorantraniliprole, reference compound] | 242

test system: not given; experiment: not given; conditions: not given

Row | melting point [°C] | SMILES
26 | 143 to 145 | NC(=O)c1cc2ccccc2c(Cl)c1NC(=O)c1cc(OC(F)F)nn1-c1ncccc1Cl [P.20, N-(3-carbamoyl-1-chloro-2-naphthyl)-2-(3-chloro-2-pyridyl)-5-(difluoromethoxy)pyrazole-3-carboxamide]
27 | 216 to 218 | Cc1ccc2c(C)c(NC(=O)c3cc(C(F)(F)F)nn3-c3ncccc3Cl)c(C(N)=O)cc2c1 [P.32, N-(3-carbamoyl-1,6-dimethyl-2-naphthyl)-2-(3-chloro-2-pyridyl)-5-(trifluoromethyl)pyrazole-3-carboxamide]
28 | 154 to 156 | COc1cc(C(=O)Nc2c(C(N)=O)cc3ccccc3c2Cl)n(-c2ncccc2Cl)n1 [P.13, N-(3-carbamoyl-1-chloro-2-naphthyl)-2-(3-chloro-2-pyridyl)-5-methoxy-pyrazole-3-carboxamide]
29 | 158 to 160 | NC(=O)c1cc2ccccc2c(Cl)c1NC(=O)c1cc(OCC(F)(F)F)nn1-c1ncccc1Cl [P.11, N-(3-carbamoyl-1-chloro-2-naphthyl)-2-(3-chloro-2-pyridyl)-5-(2,2,2-trifluoroethoxy)pyrazole-3-carboxamide]
30 | 155 to 157 | NC(=O)c1cc2ccccc2c(Cl)c1NC(=O)c1cc(C(F)(F)F)nn1-c1ncccc1Cl [P.10, N-(3-carbamoyl-1-chloro-2-naphthyl)-2-(3-chloro-2-pyridyl)-5-(trifluoromethyl)pyrazole-3-carboxamide]
31 | 135 to 140 | Cc1c(NC(=O)c2cc(OCC(F)(F)F)nn2-c2ncccc2Cl)c(C(N)=O)cc2ncsc12 [P.44, 6-[[2-(3-chloro-2-pyridyl)-5-(2,2,2-trifluoroethoxy)pyrazole-3-carbonyl]amino]-7-methyl-1,3-benzothiazole-5-carboxamide]
32 | 170 to 172 | NC(=O)c1cc2cc(Br)ccc2c(Br)c1NC(=O)c1cc(Cl)nn1-c1ncccc1Cl [P.31, 5-chloro-2-(3-chloro-2-pyridyl)-N-(1,6-dibromo-3-carbamoyl-2-naphthyl)pyrazole-3-carboxamide]
33 | 204 to 206 | NC(=O)c1nc2ccccc2c(Cl)c1NC(=O)c1cc(Br)nn1-c1ncccc1Cl [P.18, 3-[[5-bromo-2-(3-chloro-2-pyridyl)pyrazole-3-carbonyl]amino]-4-chloro-quinoline-2-carboxamide]
34 | 175 to 180 | Cc1nc2cc(C(N)=O)c(NC(=O)c3cc(Br)nn3-c3ncccc3Cl)c(C)c2s1 [P.45, 6-[[5-bromo-2-(3-chloro-2-pyridyl)pyrazole-3-carbonyl]amino]-2,7-dimethyl-1,3-benzothiazole-5-carboxamide]
35 | 149 to 157 | NC(=O)c1cc2cc(Br)ccc2c(Cl)c1NC(=O)c1cc(Cn2ncc3c(Cl)cccc32)nn1-c1ncccc1Cl
36 | 264 to 266 | NC(=O)c1cc2ccccc2c(Cl)c1NC(=O)c1cc(OCC(F)(F)C(F)(F)F)nn1-c1ncccc1Cl
37 | 223 to 225 | Cc1c(NC(=O)c2cc(C(F)(F)F)nn2-c2ncccc2Cl)c(C(N)=O)cc2c1OC(F)(F)O2
38 | 190 to 226 | NC(=O)c1cc2cc(Br)ccc2c(Cl)c1NC(=O)c1cc(Cn2nnc(C(F)(F)F)n2)nn1-c1ncccc1Cl
39 | 242 to 244 | Cc1c(NC(=O)c2cc(Br)nn2-c2ncccc2Cl)c(C(N)=O)cc2nn(C)cc12
